From article PMC6757289, “Design and Characterization of SGK3-PROTAC1, an Isoform Specific SGK3 Kinase PROTAC Degrader” (ACS Chemical Biology, 2019)
Like-named read-outs stand apart in the source and are kept apart here.

How the values were obtained:
[1] = target: VEGFR1 (Homo sapiens, UniProt P17948); test: kinase profiling panel; format: biochemical; conditions: read-out: % Activity Remaining
Source text: (§1) Protein kinase profiling against a Dundee panel of 140 protein kinases was undertaken at the International Centre for Protein Kinase Profiling. The result for each kinase was presented as a mean kinase activity of the reaction taken in triplicate relative to a control sample treated with DMSO. Assay conditions and abbreviations are available at http://www.kinase-screen.mrc.ac.uk.

[2] = target: MPSK1 (Homo sapiens, UniProt O75716); test: kinase profiling panel; format: biochemical; conditions: read-out: % Activity Remaining
MPSK1, sequence (O75716 whole entry): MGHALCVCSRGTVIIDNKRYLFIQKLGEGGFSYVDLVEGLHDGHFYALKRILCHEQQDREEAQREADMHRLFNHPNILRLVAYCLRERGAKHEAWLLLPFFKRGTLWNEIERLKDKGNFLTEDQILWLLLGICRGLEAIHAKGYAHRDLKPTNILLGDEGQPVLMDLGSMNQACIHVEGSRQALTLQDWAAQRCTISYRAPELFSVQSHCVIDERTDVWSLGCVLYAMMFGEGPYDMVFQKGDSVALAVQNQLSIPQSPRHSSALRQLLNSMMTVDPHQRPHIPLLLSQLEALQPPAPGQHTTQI
Source text: as §1

[3] = target: IGF-1R (Homo sapiens, UniProt P08069); test: kinase profiling panel; format: biochemical; conditions: read-out: % Activity Remaining
IGF-1R, sequence (P08069 31-1367): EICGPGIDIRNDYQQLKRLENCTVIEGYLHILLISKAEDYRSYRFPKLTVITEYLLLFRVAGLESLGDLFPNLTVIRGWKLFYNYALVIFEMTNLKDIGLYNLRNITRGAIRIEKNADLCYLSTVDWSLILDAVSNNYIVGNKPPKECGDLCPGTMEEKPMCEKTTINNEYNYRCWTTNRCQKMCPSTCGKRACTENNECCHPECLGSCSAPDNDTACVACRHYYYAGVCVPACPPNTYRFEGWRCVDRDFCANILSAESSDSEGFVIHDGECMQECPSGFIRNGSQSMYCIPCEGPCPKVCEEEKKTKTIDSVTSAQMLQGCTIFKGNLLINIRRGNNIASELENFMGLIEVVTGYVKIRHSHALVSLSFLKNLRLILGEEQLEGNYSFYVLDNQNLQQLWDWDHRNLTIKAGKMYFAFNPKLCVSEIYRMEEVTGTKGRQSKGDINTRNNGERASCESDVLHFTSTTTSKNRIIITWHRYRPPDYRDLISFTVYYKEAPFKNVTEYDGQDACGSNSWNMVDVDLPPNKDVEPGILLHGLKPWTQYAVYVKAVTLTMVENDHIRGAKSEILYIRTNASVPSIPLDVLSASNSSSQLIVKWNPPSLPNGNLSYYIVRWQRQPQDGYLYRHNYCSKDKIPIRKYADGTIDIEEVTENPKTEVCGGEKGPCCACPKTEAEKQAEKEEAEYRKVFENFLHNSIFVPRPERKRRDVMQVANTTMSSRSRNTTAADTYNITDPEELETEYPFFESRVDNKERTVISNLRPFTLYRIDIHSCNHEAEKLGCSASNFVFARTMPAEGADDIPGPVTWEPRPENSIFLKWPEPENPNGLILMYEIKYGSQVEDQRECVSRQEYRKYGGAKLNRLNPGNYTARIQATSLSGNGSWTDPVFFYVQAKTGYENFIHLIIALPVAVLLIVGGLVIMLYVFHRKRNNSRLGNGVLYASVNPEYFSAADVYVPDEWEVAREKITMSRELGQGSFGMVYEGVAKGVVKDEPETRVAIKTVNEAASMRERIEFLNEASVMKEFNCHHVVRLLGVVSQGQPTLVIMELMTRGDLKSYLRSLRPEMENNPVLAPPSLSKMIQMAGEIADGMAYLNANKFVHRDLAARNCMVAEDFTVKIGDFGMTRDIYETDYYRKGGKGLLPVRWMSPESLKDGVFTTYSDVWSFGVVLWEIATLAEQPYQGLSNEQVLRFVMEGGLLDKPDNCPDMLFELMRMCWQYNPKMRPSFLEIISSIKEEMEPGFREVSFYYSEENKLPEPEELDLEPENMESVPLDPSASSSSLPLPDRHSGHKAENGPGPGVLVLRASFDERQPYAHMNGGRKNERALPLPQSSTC
Source text: as §1

[4] = target: Aurora B (Homo sapiens, UniProt Q96GD4); test: kinase profiling panel; format: biochemical; conditions: read-out: % Activity Remaining
Aurora B, sequence (Q96GD4 whole entry): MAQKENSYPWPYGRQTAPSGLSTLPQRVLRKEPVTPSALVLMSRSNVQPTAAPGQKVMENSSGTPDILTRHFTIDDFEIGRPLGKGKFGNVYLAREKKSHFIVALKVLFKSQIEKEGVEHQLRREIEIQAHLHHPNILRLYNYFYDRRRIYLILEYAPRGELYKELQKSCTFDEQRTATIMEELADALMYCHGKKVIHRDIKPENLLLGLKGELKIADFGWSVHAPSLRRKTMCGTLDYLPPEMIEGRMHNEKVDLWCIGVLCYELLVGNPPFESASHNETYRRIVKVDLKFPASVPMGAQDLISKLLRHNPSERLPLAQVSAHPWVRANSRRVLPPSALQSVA
Source text: as §1

[5] = target: CK2 (Homo sapiens, UniProt P68400); test: kinase profiling panel; format: biochemical; conditions: read-out: % Activity Remaining
CK2, sequence (P68400 whole entry): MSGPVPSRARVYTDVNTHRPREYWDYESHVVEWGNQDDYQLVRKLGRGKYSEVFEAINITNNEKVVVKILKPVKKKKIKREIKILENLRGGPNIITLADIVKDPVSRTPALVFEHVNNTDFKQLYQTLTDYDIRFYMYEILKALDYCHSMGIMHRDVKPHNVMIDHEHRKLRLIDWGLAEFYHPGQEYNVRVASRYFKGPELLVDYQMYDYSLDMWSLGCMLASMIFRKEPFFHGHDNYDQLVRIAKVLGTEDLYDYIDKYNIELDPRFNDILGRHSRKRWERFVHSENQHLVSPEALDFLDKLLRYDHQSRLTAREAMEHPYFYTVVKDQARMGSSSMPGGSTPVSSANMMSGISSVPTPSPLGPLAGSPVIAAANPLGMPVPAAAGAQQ
Source text: as §1

[6] = target: CK1 delta (Homo sapiens, UniProt P48730); test: kinase profiling panel; format: biochemical; conditions: read-out: % Activity Remaining
CK1 delta, sequence (P48730 whole entry): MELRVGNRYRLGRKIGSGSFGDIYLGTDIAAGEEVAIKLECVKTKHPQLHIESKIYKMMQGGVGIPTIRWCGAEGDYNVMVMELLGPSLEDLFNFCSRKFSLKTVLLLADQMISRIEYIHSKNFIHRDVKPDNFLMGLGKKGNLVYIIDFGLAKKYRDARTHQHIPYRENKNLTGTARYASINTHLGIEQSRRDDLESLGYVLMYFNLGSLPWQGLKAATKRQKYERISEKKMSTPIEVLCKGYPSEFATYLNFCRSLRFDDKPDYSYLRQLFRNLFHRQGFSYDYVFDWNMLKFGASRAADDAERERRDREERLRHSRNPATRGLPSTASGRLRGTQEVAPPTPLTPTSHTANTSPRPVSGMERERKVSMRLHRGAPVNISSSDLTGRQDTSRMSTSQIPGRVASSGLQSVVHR
Source text: as §1

[7] = target: T1, SGK3 (Homo sapiens, UniProt Q96BR1); test: IC50 determination, biochemical kinase assay; conditions: not in the presence of VHL
T1 sequence (Q96BR1 1-496): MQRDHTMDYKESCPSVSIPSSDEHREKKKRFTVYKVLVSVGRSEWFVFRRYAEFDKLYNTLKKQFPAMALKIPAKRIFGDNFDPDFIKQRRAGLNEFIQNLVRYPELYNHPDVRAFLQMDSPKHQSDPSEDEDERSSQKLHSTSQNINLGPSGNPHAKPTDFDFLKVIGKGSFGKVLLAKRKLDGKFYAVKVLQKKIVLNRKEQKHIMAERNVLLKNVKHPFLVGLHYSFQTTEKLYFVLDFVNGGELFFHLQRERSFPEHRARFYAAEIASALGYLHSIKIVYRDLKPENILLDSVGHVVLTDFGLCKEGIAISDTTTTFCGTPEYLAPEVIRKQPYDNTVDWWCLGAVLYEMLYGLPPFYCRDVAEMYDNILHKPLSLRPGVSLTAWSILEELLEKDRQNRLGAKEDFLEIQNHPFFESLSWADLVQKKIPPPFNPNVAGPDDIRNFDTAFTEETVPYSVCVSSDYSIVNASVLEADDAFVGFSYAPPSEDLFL
Description: (§2) IC50 determination was performed at the MRC PPU International Centre for Protein Kinase Profiling, according to the protocol previously described[47],[48]

[8] = target: S6K1 (Homo sapiens, UniProt P23443, T412E); test: IC50 determination, biochemical kinase assay; conditions: for IC50: not in the presence of VHL
S6K1, sequence (P23443 1-421 T412E limits assumed): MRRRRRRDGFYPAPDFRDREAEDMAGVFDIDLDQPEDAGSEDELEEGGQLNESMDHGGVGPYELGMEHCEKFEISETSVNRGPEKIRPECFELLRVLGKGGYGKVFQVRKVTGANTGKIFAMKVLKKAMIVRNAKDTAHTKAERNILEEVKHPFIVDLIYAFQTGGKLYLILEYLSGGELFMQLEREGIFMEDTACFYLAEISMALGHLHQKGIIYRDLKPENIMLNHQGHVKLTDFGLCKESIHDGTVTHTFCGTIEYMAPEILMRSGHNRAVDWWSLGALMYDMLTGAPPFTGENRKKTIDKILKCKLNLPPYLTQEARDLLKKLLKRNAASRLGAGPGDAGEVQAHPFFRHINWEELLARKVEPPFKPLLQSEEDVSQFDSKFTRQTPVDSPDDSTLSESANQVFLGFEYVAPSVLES
Description: as §2

[9] = target: T2, SGK1 (Homo sapiens, UniProt O00141, S422D); test: IC50 determination, biochemical kinase assay; conditions: not in the presence of VHL
T2 sequence (O00141 60-431 S422D limits assumed): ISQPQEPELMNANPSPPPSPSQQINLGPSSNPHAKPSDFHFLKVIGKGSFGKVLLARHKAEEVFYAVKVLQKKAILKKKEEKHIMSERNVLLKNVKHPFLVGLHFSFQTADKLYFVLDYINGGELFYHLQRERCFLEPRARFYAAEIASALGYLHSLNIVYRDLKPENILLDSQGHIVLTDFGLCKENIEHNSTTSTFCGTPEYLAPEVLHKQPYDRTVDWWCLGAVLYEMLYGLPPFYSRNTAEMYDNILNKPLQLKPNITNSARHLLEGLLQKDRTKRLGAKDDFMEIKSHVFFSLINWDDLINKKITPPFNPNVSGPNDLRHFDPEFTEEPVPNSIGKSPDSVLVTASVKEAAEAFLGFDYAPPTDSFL

[10] = test system: phosphorylation of NDRG1 at Thr346; test: NDRG1 phosphorylation in HEK293 cells, immunoblot; format: cell-based; conditions: HEK293, 8 h; for pNDRG1 phosphorylation: basal, no inhibition of Akt
Description: Figure 3 Characterization of cellular activities of SGK3-PROTAC1 and cisSGK3-PROTAC1. (A) HEK293 cells were first treated for 8 h with 0.03–3 μM SGK3-PROTAC1 and cisSGK3-PROTAC1. One hour before lysis, cells were treated with 3 μM AZD5363. Lysates were subjected to immunoblot analysis with the indicated antibodies. […] Lysates were subjected to immunoblot analysis with the indicated antibodies. (C) HEK293 cells were treated for up to 48 h with SGK3-PROTAC1 (0.3 μM), and lysates were analyzed by immunoblot analysis using the indicated antibodies. (D) HEK293 cells were treated for 24 h with SGK3-PROTAC1. Cells were washed three times with DMEM to wash out the compound, and recovery of SGK3 expression protein was analyzed by immunoblot analysis. (E–G) As in A except that CAMA-1 (E), ZR-75-1 (F), and JIMT-1 (G) cells were employed rather than HEK293 cells.
To study the impact of SGK3-PROTAC1 on phosphorylation of a physiological substrate, we monitored phosphorylation of NDRG1 at Thr346.[37] This site is also phosphorylated by Akt; therefore we treated cells with increasing doses of SGK3-PROTAC1 and cisSGK3-PROTAC1 for 8 h, with the addition of an Akt inhibitor (3 μM AZD5363) 1 h before lysis, to remove the impact of Akt phosphorylation of NDRG1. […] Concentrations of cisSGK3-PROTAC1 of above 1 μM were required to lower NDRG1 phosphorylation. […] This is consistent with previous work in HEK293 cells showing that inhibition of both Akt and SGK3 is required to block NDRG1 phosphorylation.[8],[37]
All cell treatments were carried out as described in figure legends, to a final DMSO concentration of 0.1% (v/v). Lysates were quantified. Immunoblotting was performed using standard procedures, described in brief below. Lysate concentration was quantified by Bradford Assay, and 10 μg of lysate was loaded in the LDS sample buffer for SDS-PAGE electrophoresis on Novex 4–12% Bis–Tris gels. Proteins were electrophoretically transferred onto nitrocellulose membranes (Amersham Protran 0.45 μm NC; GE Healthcare) at 80 V for 80 min on ice in transfer buffer. Transferred membranes were blocked with 5% (w/v) nonfat dry milk dissolved in TBS-T [20 mM Tris/HCl, pH 7.5, 150 mM NaCl, and 0.1% (v/v) Tween 20] at RT for 30 min, before incubation with the primary antibody overnight at 4 °C. The signal was produced with near-infrared secondary antibodies and detected using a Licor Biosciences Odyssey System, and the signal was quantified in Image Studio Lite.

[11] = 0.3 μM SGK3-PROTAC1, 1 μM 14H, 1 μM 308-R
[12] = in the presence of 3 μM AZD5363, 0.3 μM SGK3-PROTAC1, 1 μM 14H, 1 μM 308-R
[13] = 0.1 μM, 3 μM AZD5363 1 h before lysis

VEGFR1, sequence (P17948 27-1338): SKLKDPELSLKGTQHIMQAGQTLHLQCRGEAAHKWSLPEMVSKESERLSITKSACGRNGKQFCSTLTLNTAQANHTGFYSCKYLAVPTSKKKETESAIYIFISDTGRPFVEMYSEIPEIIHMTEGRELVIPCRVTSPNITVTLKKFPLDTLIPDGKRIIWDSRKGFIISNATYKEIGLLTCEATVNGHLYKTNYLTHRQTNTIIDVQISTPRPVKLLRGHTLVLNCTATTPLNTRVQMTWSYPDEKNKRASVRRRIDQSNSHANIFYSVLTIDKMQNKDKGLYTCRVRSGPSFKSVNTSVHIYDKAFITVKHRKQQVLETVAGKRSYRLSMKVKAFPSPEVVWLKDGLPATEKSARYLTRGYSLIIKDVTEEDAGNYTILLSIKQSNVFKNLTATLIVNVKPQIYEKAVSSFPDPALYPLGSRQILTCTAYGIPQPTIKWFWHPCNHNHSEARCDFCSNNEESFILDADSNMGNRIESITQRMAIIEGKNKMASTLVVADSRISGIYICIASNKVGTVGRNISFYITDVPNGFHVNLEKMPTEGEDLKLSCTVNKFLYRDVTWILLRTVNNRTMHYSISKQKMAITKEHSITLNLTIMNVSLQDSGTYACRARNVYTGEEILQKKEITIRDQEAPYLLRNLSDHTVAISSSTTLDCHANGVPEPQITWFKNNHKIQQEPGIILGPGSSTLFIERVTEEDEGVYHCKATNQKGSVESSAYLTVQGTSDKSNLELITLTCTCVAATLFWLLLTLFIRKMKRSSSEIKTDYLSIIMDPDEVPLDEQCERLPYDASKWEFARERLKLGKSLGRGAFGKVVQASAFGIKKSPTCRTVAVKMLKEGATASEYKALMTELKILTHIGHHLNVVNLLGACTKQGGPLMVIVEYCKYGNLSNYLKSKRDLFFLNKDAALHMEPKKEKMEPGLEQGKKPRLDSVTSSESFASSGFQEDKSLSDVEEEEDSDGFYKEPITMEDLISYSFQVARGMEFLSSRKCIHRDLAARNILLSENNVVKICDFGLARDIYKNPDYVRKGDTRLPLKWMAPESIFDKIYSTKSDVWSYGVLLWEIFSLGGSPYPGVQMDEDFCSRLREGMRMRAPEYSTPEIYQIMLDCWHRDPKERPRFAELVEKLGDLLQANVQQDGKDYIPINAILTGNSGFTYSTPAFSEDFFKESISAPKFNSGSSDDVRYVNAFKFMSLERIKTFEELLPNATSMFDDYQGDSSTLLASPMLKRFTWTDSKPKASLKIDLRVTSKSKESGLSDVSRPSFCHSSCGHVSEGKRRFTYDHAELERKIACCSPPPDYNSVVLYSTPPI

IC50 [7] [nM] | IC50 [8] [nM] | IC50 [9] [nM] | Structure (SMILES) | remaining activity at 1 µM ([5]; 1 µM) [%] | also measured
440 | 160 | 1600 | Cc1ccc(F)c(S(=O)(=O)Nc2ccc(-c3nc(OC[C@H]4CN(CCOCCOCCOCC(=O)N[C@H](C(=O)N5C[C@H](O)C[C@H]5C(=O)NCc5ccc(-c6scnc6C)cc5)C(C)(C)C)CCO4)c4cn[nH]c4n3)cc2)c1 [DAT1] |  | 
> 10000 | > 10000 | > 10000 | Cc1ccc(F)c(S(=O)(=O)Nc2ccc(-c3nc(OC[C@H]4CN(CCOCCOCC(=O)N[C@H](C(=O)N5C[C@H](O)C[C@H]5C(=O)NCc5ccc(-c6scnc6C)cc5)C(C)(C)C)CCO4)c4cn[nH]c4n3)cc2)c1 [DAT5] |  | 
> 10000 | > 10000 | > 10000 | Cc1ccc(F)c(S(=O)(=O)Nc2ccc(-c3nc(OC[C@H]4CN(CCOCCOCCOCCOCC(=O)N[C@H](C(=O)N5C[C@H](O)C[C@H]5C(=O)NCc5ccc(-c6scnc6C)cc5)C(C)(C)C)CCO4)c4cn[nH]c4n3)cc2)c1 [DAT6] |  | 
> 10000 | > 10000 | > 10000 | Cc1ccc(F)c(S(=O)(=O)Nc2ccc(-c3nc(OC[C@H]4CN(CCOCCOCCOCCOCCOCC(=O)N[C@H](C(=O)N5C[C@H](O)C[C@H]5C(=O)NCc5ccc(-c6scnc6C)cc5)C(C)(C)C)CCO4)c4cn[nH]c4n3)cc2)c1 [DAT7] |  | 
> 10000 | > 10000 | > 10000 | Cc1ccc(F)c(S(=O)(=O)Nc2ccc(-c3nc(OC[C@H]4CN(CCCCCCOCCCCCCOCC(=O)N[C@H](C(=O)N5C[C@H](O)C[C@H]5C(=O)NCc5ccc(-c6scnc6C)cc5)C(C)(C)C)CCO4)c4cn[nH]c4n3)cc2)c1 [DAT10] |  | 
730 | 1800 | 1340 | COc1ccc(Cl)c(S(=O)(=O)Nc2ccc(-c3nc(OC[C@H]4CN(CCCCCCOCCOCCOCCOCC(=O)N[C@H](C(=O)N5C[C@H](O)C[C@H]5C(=O)NCc5ccc(-c6scnc6C)cc5)C(C)(C)C)CCO4)c4c(C)n[nH]c4n3)cc2)c1 [DAT11] |  | 

Structure (SMILES) | IC50 [7] [nM] | IC50 [8] [nM] | IC50 [9] [nM] | remaining activity at 1 µM ([5]; 1 µM) [%] | also measured
COc1ccc(Cl)c(S(=O)(=O)Nc2ccc(-c3nc(OC[C@H]4CNCCO4)c4c(C)n[nH]c4n3)cc2)c1 [290-R, reference compound] | 35 | 10 | 19 | 100 | remaining activity at 1 µM [1]: 82%; remaining activity at 1 µM [2]: 82%; remaining activity at 1 µM [3]: 88%; remaining activity at 1 µM [4]: 70%; remaining activity at 1 µM [6]: 65%
Cc1ccc(F)c(S(=O)(=O)Nc2ccc(-c3nc(OC[C@H]4CNCCO4)c4cn[nH]c4n3)cc2)c1 [308-R, reference compound] | 5 | 1 |  |  | remaining activity at 1 µM [1]: 95%; remaining activity at 1 µM [2]: 116%; remaining activity at 1 µM [3]: 95%; remaining activity at 1 µM [4]: 115%; remaining activity at 1 µM [5]: 103%; remaining activity at 1 µM [6]: 121%; pNDRG1 phosphorylation [10, 11]: minimal effect; NDRG1 phosphorylation [10, 12]: markedly suppressed
Cc1ccc(F)c(S(=O)(=O)Nc2ccc(-c3nc(OC[C@H]4CN(CCCCCCOCCOCCOCC(=O)N[C@H](C(=O)N5C[C@H](O)C[C@H]5C(=O)NCc5ccc(-c6scnc6C)cc5)C(C)(C)C)CCO4)c4cn[nH]c4n3)cc2)c1 [SGK3-PROTAC1] |  | 1800 | 220 | 90 | remaining activity at 1 µM ([1]; 1 µM): 120%; remaining activity at 1 µM ([2]; 1 µM): 127%; remaining activity at 1 µM ([3]; 1 µM): 82%; remaining activity at 1 µM ([4]; 1 µM): 93%; remaining activity at 1 µM ([6]; 1 µM): 95%; increase of IC50 against S6K1 relative to DAT1 ([8]; 0.16 μM to 1.8 μM): approximately 10 fold; NDRG1 phosphorylation [10, 13]: reduced NDRG1 phosphorylation; pNDRG1 phosphorylation [10, 11]: minimal effect; NDRG1 phosphorylation [10, 12]: markedly suppressed
Cc1ccc(F)c(S(=O)(=O)Nc2ccc(-c3nc(OC[C@H]4CN(CCCCCCOCCOCCOCC(=O)N[C@H](C(=O)N5C[C@@H](O)C[C@H]5C(=O)NCc5ccc(-c6scnc6C)cc5)C(C)(C)C)CCO4)c4cn[nH]c4n3)cc2)c1 [cisSGK3-PROTAC1] |  | 1700 | 1400 | 96 | remaining activity at 1 µM ([1]; 1 µM): 103%; remaining activity at 1 µM ([2]; 1 µM): 139%; remaining activity at 1 µM ([3]; 1 µM): 93%; remaining activity at 1 µM ([4]; 1 µM): 95%; remaining activity at 1 µM ([6]; 1 µM): 108%; NDRG1 phosphorylation [10, 13]: no effect; concentration required to lower NDRG1 phosphorylation ([10]; 3 μM AZD5363 1 h before lysis): above 1 μM
